PMC7979765, “trans-Translation inhibitors bind to a novel site on the ribosome and clear Neisseria gonorrhoeae in vivo” (Nature Communications, 2021)
Like-named read-outs stand apart in the source and are kept apart here.

Columns and labels:
[1] = tested on: Pseudomonas aeruginosa; assay: MIC, microbroth dilution; assay type: cell-based
[2] = Pharmacokinetic analyses in mice (PO suspension, IV, SC); assay type: in vivo, mouse
Protocol: Female CD-1 mice as above were fasted for 2 h prior, and 4 h after dosing. […] […], 3 mice from each group were euthanized by CO2 inhalation, blood was collected by cardiac puncture into K2EDTA collection tubes, and protein was precipitated and analysed by LC/MS-MS for plasma concentrations of MBX-4132. Data were analysed using WinNonLin.
[…] At 0.083, 0.5, 1, 4, 8 and 24 h post dose, blood was collected from 3 mice/group by tail vein or facial bleed into K2EDTA collection tubes, and protein was precipitated and analysed by LC/MS-MS for plasma concentrations of MBX-4132. Sampling was performed serially, with each mouse contributing sample at all time points. Data were analysed using WinNonLin.

[3] = Pseudomonas aeruginosa ATCC 27853, replicates
[4] = Pseudomonas aeruginosa, ATCC27853, Pseudomonas aeruginosa ATCC 27853, replicates, read-out: MIC
[5] = Pseudomonas aeruginosa, ATCC27853, strain ATCC 27853, read-out: MIC

| Structure (SMILES) | MIC [1, 3] [µg/mL] | MIC [1, 4] [µg/mL] | MIC [1, 5] [µg/mL] | oral bioavailability (in words) ([2]; mice) | exposure in fasted vs fed mice (in words) ([2]; plasma at 1 and 4 h post dosing, formulation A) |
| --- | --- | --- | --- | --- | --- |
| O=C(Nc1nnc(-c2ccc(F)cc2)o1)c1ccc(Cl)cc1 [KKL-35, 4-chloro-N-(5-(4-fluorophenyl)-1,3,4-oxadiazol-2-yl)benzamide] | ≥32 | ≥ 32 | > 32 |  |  |
| O=C(Nc1nnc(-c2ccc(F)cc2)o1)N1CCc2ccccc2C1 [MBX-4132] | ≥34 | ≥ 34 | ≥ 34 | highly orally bioavailable | No significant variation in exposure |
